Data: the NIST ThermoML archive (doi:10.1021/je800701j)
± gives the expanded uncertainty stated by the source.

Tests used:
[1] = 101 kPa, Liquid, Pycnometric method
[2] = xn = mol fraction of the nth substance listed; settings: 101 kPa, Liquid, Pycnometric method

CC(=O)[O-].CCn1cc[n+](C)c1 [1-ethyl-3-methylimidazolium acetate]
[1]
Settings	mass density [kg/m3]
298.1 K	1102 ± 9
323.1 K	1086 ± 9
348.1 K	1073 ± 8
373.1 K	1059 ± 8

CC(=O)[O-].CCn1cc[n+](C)c1 [1-ethyl-3-methylimidazolium acetate] + CCn1cc[n+](C)c1.O=C([O-])C(F)(F)F
[2], x2 = 0
Settings	mass density [kg/m3]
298.1 K	1102 ± 9
323.1 K	1086 ± 9
348.1 K	1073 ± 8
373.1 K	1059 ± 8

CCn1cc[n+](C)c1.O=C([O-])C(F)(F)F [1-ethyl-3-methylimidazolium trifluoroacetate]
[1]
Settings	mass density [kg/m3]
298.1 K	1301 ± 10
323.1 K	1283 ± 10
348.1 K	1264 ± 10
373.1 K	1250 ± 10

CCn1cc[n+](C)c1.O=C([O-])C(F)(F)F [1-ethyl-3-methylimidazolium trifluoroacetate] + CC(=O)[O-].CCn1cc[n+](C)c1
mass density [kg/m3], [2]
Settings	298.1 K	323.1 K	348.1 K	373.1 K
x1 = 0.2464	1152 ± 9	1136 ± 9	1121 ± 9	1107 ± 9
x1 = 0.5002	1204 ± 10	1189 ± 9	1172 ± 9	1157 ± 9
x1 = 0.7468	1252 ± 10	1235 ± 10	1217 ± 10	1202 ± 10
x1 = 1	1301 ± 10	1283 ± 10	1264 ± 10	1250 ± 10
